“And” between values parts separate entries of the source, which are not always exact repeats. Equal entries are not always repeated. Where two headings read alike, the source gives them in different places.
Experiments:
Format in all cases: cell-based
[1] = tested on: Aspergillus niger (A. niger, ATCC 16404); assay: Microtiter plate MIC synergy test (Kull synergy index), mold; settings: for MIC: Aspergillus niger; for Ca, first component alone (QA, MIC): A. niger, component acting alone
Source text: (§1) One measure of synergism is the industrially accepted method described by Kull, F. C.; Eisman, P. C.; Sylwestrowicz, H. D. and Mayer, R. L., in Applied Microbiology 9:538-541 (1961), using the ratio determined by the formula: Qa/QA+Qb/QB=Synergy Index (“SI”) wherein: • QA=concentration of compound A (first component) in ppm, acting alone, which produced an end point (MIC of Compound A). • Qa=concentration of compound A in ppm, in the mixture, which produced an end point. • QB=concentration of compound B (second component) in ppm, acting alone, which produced an end point (MIC of Compound B). • Qb=concentration of compound B in ppm, in the mixture, which produced an end point.
(§2) When the sum of Qa/QA and Qb/QB is greater than one, antagonism is indicated. […] The lower the SI, the greater the synergy shown by that particular mixture. The minimum inhibitory concentration (MIC) of a microbicide is the lowest concentration tested under a specific set of conditions that prevents the growth of added microorganisms.
(§3) Synergy tests were conducted using standard microtiter plate assays with media designed for optimal growth of the test microorganism. Minimal salt medium supplemented with 0.2% glucose and 0.1% yeast extract (M9GY medium) was used for testing bacteria; Potato Dextrose Broth (PDB medium) was used for testing yeast and mold. In this method, a wide range of combinations of microbicides was tested by conducting high resolution MIC assays in the presence of various concentrations of MBIT. High resolution MICs were determined by adding varying amounts of microbicide to one column of a microtitre plate and doing subsequent […] dilutions using an automated liquid handling system to obtain a series of endpoints ranging from 2 ppm to 10,000 ppm active ingredient.
(§4) The synergy of the combinations of the present invention was determined against a bacterium, Escherichia coli (E. coli—ATCC #8739), a yeast, Candida albicans (C. albicans—ATCC 10231), and a mold, Aspergillus niger (A. niger—ATCC 16404). The bacteria were used at a concentration of about 5×10^6 bacteria per mL and the yeast and mold at 5×10^5 fungi per mL. These microorganisms are representative of natural contaminants in many consumer and industrial applications. […] (yeast and mold) or 30° C. (bacteria).
(§5) In each test, Second Component (B) was MBIT and the First Component (A) was the other commercial microbicide.

Ps. aeruginosa ATCC#9027 = assay: Microtiter plate MIC synergy test (Kull synergy index), bacterium; settings: for MIC: Pseudomonas aeruginosa, ATCC9027; for Ca, first component alone (QA, MIC) / Cb, MBIT alone (QB, MIC): Ps. aeruginosa; for Ca, first component alone (QA, MIC): component acting alone; for Cb, MBIT alone (QB, MIC): MBIT acting alone
S. aureus ATCC#6538 = assay: as above; settings: for MIC: Staphylococcus aureus, ATCC6538; for Ca, first component alone (QA, MIC) / Cb, MBIT alone (QB, MIC): S. aureus; for Ca, first component alone (QA, MIC): component acting alone; for Cb, MBIT alone (QB, MIC): MBIT acting alone
[2] = tested on: Candida albicans (C. albicans, ATCC 10231); assay: Microtiter plate MIC synergy test (Kull synergy index), yeast; settings: for MIC: Candida albicans, ATCC10231; for Ca, first component alone (QA, MIC) / Cb, MBIT alone (QB, MIC): C. albicans; for Ca, first component alone (QA, MIC): component acting alone; for Cb, MBIT alone (QB, MIC): MBIT acting alone
Source text: as §1, §2, §3, §4, §5

## CCCC1COC(Cn2cncn2)(c2ccc(Cl)cc2Cl)O1 (stereo not shown) [propiconazole]
[1]; ATCC16404, 72 h, A. niger ATCC # 16404, contact time 3 days, read-out: Ca - ppm AI of Propiconazole (MIC end-point; alone QA or in the mixture Qa)
  MIC: 52.5 µg/mL
[1]; ATCC16404, 168 h, A. niger ATCC # 16404, contact time 7 days, read-out: Ca - ppm AI of Propiconazole (MIC end-point; alone QA or in the mixture Qa)
  MIC: 87.5 µg/mL
Ps. aeruginosa ATCC#9027; Ps. aeruginosa ATCC#9027, contact time 24 hrs, read-out: Ca - ppm AI of Propiconazole (MIC end-point; alone QA or in the mixture Qa)
  MIC: 875 µg/mL
Ps. aeruginosa ATCC#9027; Ps. aeruginosa ATCC#9027, contact time 48 hrs, read-out: Ca - ppm AI of Propiconazole (MIC end-point; alone QA or in the mixture Qa)
  MIC: 875 µg/mL
S. aureus ATCC#6538; S. aureus ATCC#6538, contact time 24 hrs, read-out: Ca - ppm AI of Propiconazole (MIC end-point; alone QA or in the mixture Qa)
  MIC: 1100 µg/mL
S. aureus ATCC#6538; S. aureus ATCC#6538, contact time 48 hrs, read-out: Ca - ppm AI of Propiconazole (MIC end-point; alone QA or in the mixture Qa)
  MIC: 1100 µg/mL
[2]; C. albicans ATCC # 10231, contact time 48 hrs, read-out: Ca - ppm AI of Propiconazole (MIC end-point; alone QA or in the mixture Qa)
  MIC: 525 µg/mL
[2]; C. albicans ATCC # 10231, contact time 72 hrs, read-out: Ca - ppm AI of Propiconazole (MIC end-point; alone QA or in the mixture Qa)
  MIC: 525 µg/mL

## N#CC(Br)(Br)C(N)=O [DBNPA, 2,2-Dibromo-3-nitrilopropionamide]
[1]; contact time 3 days
  Ca, first component alone (QA, MIC): 42.5 ppm AI
[1]; contact time 7 days
  Ca, first component alone (QA, MIC): 200 ppm AI
Ps. aeruginosa ATCC#9027; contact time 24 hrs
  Ca, first component alone (QA, MIC): 4.25 ppm AI
Ps. aeruginosa ATCC#9027; contact time 48 hrs
  Ca, first component alone (QA, MIC): 5.25 ppm AI
S. aureus ATCC#6538; contact time 48 hrs
  Ca, first component alone (QA, MIC): 8.5 ppm AI
[2]; contact time 48 hrs
  Ca, first component alone (QA, MIC): 44 ppm AI
[2]; contact time 72 hrs
  Ca, first component alone (QA, MIC): >44 ppm AI

## C=O [HCHO, Formaldehyde]
[1]; contact time 3 days
  Ca, first component alone (QA, MIC): 200 ppm AI
[1]; contact time 7 days
  Ca, first component alone (QA, MIC): 425 ppm AI
Ps. aeruginosa ATCC#9027; contact time 24 hrs
  Ca, first component alone (QA, MIC): 15 ppm AI
Ps. aeruginosa ATCC#9027; contact time 48 hrs
  Ca, first component alone (QA, MIC): 26.25 ppm AI
S. aureus ATCC#6538; contact time 24 hrs
  Ca, first component alone (QA, MIC): 30 ppm AI
S. aureus ATCC#6538; contact time 48 hrs
  Ca, first component alone (QA, MIC): 30 ppm AI
[2]; contact time 48 hrs
  Ca, first component alone (QA, MIC): 425 ppm AI
[2]; contact time 72 hrs
  Ca, first component alone (QA, MIC): 525 ppm AI

## CCCCCCCCn1sccc1=O [OIT, 2-N-octyl-4-isothiazolin-3-one]
[1]; contact time 3 days
  Ca, first component alone (QA, MIC): 0.65 ppm AI
[1]; contact time 7 days
  Ca, first component alone (QA, MIC): 8.75 ppm AI
Ps. aeruginosa ATCC#9027; contact time 24 hrs
  Ca, first component alone (QA, MIC): 650 ppm AI
Ps. aeruginosa ATCC#9027; contact time 48 hrs
  Ca, first component alone (QA, MIC): 650 ppm AI
S. aureus ATCC#6538; contact time 24 hrs
  Ca, first component alone (QA, MIC): 30 ppm AI
S. aureus ATCC#6538; contact time 48 hrs
  Ca, first component alone (QA, MIC): 200 ppm AI
[2]; contact time 48 hrs
  Ca, first component alone (QA, MIC): 3.25 ppm AI
[2]; contact time 72 hrs
  Ca, first component alone (QA, MIC): 3.25 ppm AI

## CC(C)(C)C(O)(CCc1ccc(Cl)cc1)Cn1cncn1 (stereo not shown) [tebuconazole]
[1]; ATCC16404, 72 h, A. niger ATCC # 16404, contact time 3 days, read-out: Ca - ppm AI of Tebuconazole (MIC end-point; alone QA or in the mixture Qa)
  MIC: 4.25 µg/mL
[1]; ATCC16404, 168 h, A. niger ATCC # 16404, contact time 7 days, read-out: Ca - ppm AI of Tebuconazole (MIC end-point; alone QA or in the mixture Qa)
  MIC: 11 µg/mL
Ps. aeruginosa ATCC#9027; Ps. aeruginosa ATCC#9027, contact time 24 hrs, read-out: Ca - ppm AI of Tebuconazole (MIC end-point; alone QA or in the mixture Qa)
  MIC: 875 µg/mL
Ps. aeruginosa ATCC#9027; Ps. aeruginosa ATCC#9027, contact time 48 hrs, read-out: Ca - ppm AI of Tebuconazole (MIC end-point; alone QA or in the mixture Qa)
  MIC: 1100 µg/mL
S. aureus ATCC#6538; S. aureus ATCC#6538, contact time 24 hrs, read-out: Ca - ppm AI of Tebuconazole (MIC end-point; alone QA or in the mixture Qa)
  MIC: 300 µg/mL
S. aureus ATCC#6538; S. aureus ATCC#6538, contact time 48 hrs, read-out: Ca - ppm AI of Tebuconazole (MIC end-point; alone QA or in the mixture Qa)
  MIC: 425 µg/mL
[2]; C. albicans ATCC # 10231, contact time 48 hrs, read-out: Ca - ppm AI of Tebuconazole (MIC end-point; alone QA or in the mixture Qa)
  MIC: 110 µg/mL
[2]; C. albicans ATCC # 10231, contact time 72 hrs, read-out: Ca - ppm AI of Tebuconazole (MIC end-point; alone QA or in the mixture Qa)
  MIC: 110 µg/mL

## Cn1sc2ccccc2c1=O [MBIT, N-methyl-1,2-benzisothiazolin-3-one]
[1]; A. niger ATCC # 16404, contact time 3 days, Table 5
  Cb - ppm AI of MBIT (MIC end-point; alone QB or in the mixture Qb): 37.5 ppm
[1]; A. niger ATCC # 16404, contact time 3 days, Table 6
  Cb - ppm AI of MBIT (MIC end-point; alone QB or in the mixture Qb): 37.5 ppm
[1]; A. niger ATCC # 16404, contact time 7 days, Table 5
  Cb - ppm AI of MBIT (MIC end-point; alone QB or in the mixture Qb): 150 ppm
[1]; A. niger ATCC # 16404, contact time 7 days, Table 6
  Cb - ppm AI of MBIT (MIC end-point; alone QB or in the mixture Qb): 150 ppm
Ps. aeruginosa ATCC#9027; Ps. Aeruginosa ATCC#9027, contact time 24 hrs, Table 5
  Cb - ppm AI of MBIT (MIC end-point; alone QB or in the mixture Qb): 100 ppm
Ps. aeruginosa ATCC#9027; Ps. Aeruginosa ATCC#9027, contact time 48 hrs, Table 5
  Cb - ppm AI of MBIT (MIC end-point; alone QB or in the mixture Qb): 175 ppm
Ps. aeruginosa ATCC#9027; Ps. aeruginosa ATCC#9027, contact time 24 hrs, Table 6
  Cb - ppm AI of MBIT (MIC end-point; alone QB or in the mixture Qb): 100 ppm
Ps. aeruginosa ATCC#9027; Ps. aeruginosa ATCC#9027, contact time 48 hrs, Table 6
  Cb - ppm AI of MBIT (MIC end-point; alone QB or in the mixture Qb): 175 ppm
Ps. aeruginosa ATCC#9027; contact time 24 hrs
  Cb, MBIT alone (QB, MIC): 100 ppm AI
Ps. aeruginosa ATCC#9027; contact time 48 hrs
  Cb, MBIT alone (QB, MIC): 175 ppm AI
S. aureus ATCC#6538; S. aureus ATCC#6538, contact time 24 hrs, Table 5
  Cb - ppm AI of MBIT (MIC end-point; alone QB or in the mixture Qb): 30 ppm
S. aureus ATCC#6538; S. aureus ATCC#6538, contact time 24 hrs, Table 6
  Cb - ppm AI of MBIT (MIC end-point; alone QB or in the mixture Qb): 30 ppm
S. aureus ATCC#6538; S. aureus ATCC#6538, contact time 48 hrs, Table 5
  Cb - ppm AI of MBIT (MIC end-point; alone QB or in the mixture Qb): 60 ppm
S. aureus ATCC#6538; S. aureus ATCC#6538, contact time 48 hrs, Table 6
  Cb - ppm AI of MBIT (MIC end-point; alone QB or in the mixture Qb): 60 ppm
S. aureus ATCC#6538; contact time 24 hrs
  Cb, MBIT alone (QB, MIC): 60 ppm AI and 30 ppm AI
S. aureus ATCC#6538; contact time 48 hrs
  Cb, MBIT alone (QB, MIC): 60 ppm AI
[2]; C. albicans ATCC # 10231, contact time 48 hrs, Table 5
  Cb - ppm AI of MBIT (MIC end-point; alone QB or in the mixture Qb): 30 ppm
[2]; C. albicans ATCC # 10231, contact time 48 hrs, Table 6
  Cb - ppm AI of MBIT (MIC end-point; alone QB or in the mixture Qb): 30 ppm
[2]; C. albicans ATCC # 10231, contact time 72 hrs, Table 5
  Cb - ppm AI of MBIT (MIC end-point; alone QB or in the mixture Qb): 30 ppm
[2]; C. albicans ATCC # 10231, contact time 72 hrs, Table 6
  Cb - ppm AI of MBIT (MIC end-point; alone QB or in the mixture Qb): 30 ppm
[2]; contact time 48 hrs
  Cb, MBIT alone (QB, MIC): 30 ppm AI
[2]; contact time 72 hrs
  Cb, MBIT alone (QB, MIC): 30 ppm AI

From patent publication US8940779B2, “Microbicidal composition” (Rohm and Haas Company, priority 2007, dated 2015)
